Experimental data: patent publication US20110306606A1, “NOVEL 2,6-SUBSTITUTED-3-NITROPYRIDINE DERIVATIVE, METHOD FOR PREPARING SAME, AND PHARMACEUTICAL COMPOSITION INCLUDING SAME” (priority 2008, published 2011)
Where two headings read alike, the source gives them in different places.

What was measured:
[1] = system: formation of osteoclasts in co-culture of bone marrow cells and osteoblasts; assay: Osteoclastogenesis inhibition via co-culture system (TRAP staining); assay type: cell-based, mice; settings: 1 μM compound, 7 days co-culture, TRAP-positive multinucleated osteoclasts vs vehicle control; for inhibition at 1 µM: Mus musculus, Osteoclast, 168 h
Experimental: Osteoclastogenesis inhibitory effects of the compounds of the present invention were evaluated via a co-culture system (Reference: Endocrinology 137(1996), 2187 to 2190, E. Jimi et al.). A specific experimental method is as follows.
1) Preparation of Bone Marrow Cells and Osteoblasts
Femora and tibia were aseptically dissected from 6 to 8-week-old male ddY mice to harvest bone marrow cells by a conventional method using a syringe. In brief, tissues were removed from the dissected bone, the bone ends were cut off with scissors, and the bone marrow was isolated by pushing a medium-containing syringe (23G) against the one end of the cut bone. The isolated bone marrow was subjected to repeated piston movement of a syringe such that single cells were obtained (Reference: Endocrinology 123(1988), 2600 to 2602, Takahashi et al.). After removal of red blood cells within the bone marrow, the bone marrow cells recovered by centrifugation were placed in an α-MEM supplemented with 10% fetal bovine serum (FBS), followed by counting of nucleated cells and then were immediately used for a co-culture system.
2) Osteoclastogenesis Inhibition Experiment Via Co-Culture System
As the medium used for a co-culture system, a differentiation medium with the addition of differentiation factors 1α,25-dihydroxyvitamin D3 (10^−8M) and dexamethasone (10^−8M) to a-MEM supplemented with 10% FBS was used for the induction of osteoclastogenesis. First, the compounds dissolved in dimethyl sulfoxide (DMSO) at a concentration of 1 mM were diluted to 2 μM using the above-mentioned differentiation medium. As a vehicle control group, 0.2% (v/v) DMSO was added to the medium. 100 μL/well of each medium was added to 96-well plates. In addition, the above prepared bone marrow cells and osteoblasts were plated onto 96-well plates at a density of 1×10^5 cells/50 μL/well and 3×10^3 cells/50 μL/well, respectively. The total volume/well was 200 μL and the final compound concentration was 1 μM. The control group was 0.1% DMSO. The cells were cultured with exchange of the culture media with fresh media containing differentiation factors and test materials at an interval of 2 to 3 days.
7 days after culturing of cells, the formation of multinucleated osteoclasts was confirmed by microscopic examination, the medium was removed from the wells and then the cells were fixed in a 10% phosphate-buffered formalin solution. The degree of formation of mature osteoclasts was measured taking advantage of the characteristics of osteoclasts showing a positive reaction to a tartrate-resistant acid phosphatase (TRAP) staining solution. The TRAP staining solution was prepared in a manner such that naphthol AS-MS phosphate as a substrate and a coloring agent (Fast Red Violet LB salt) were dissolved in N,N-dimethylformamide, and a 0.1N NaHCO3 buffer solution containing 50 mM of tartaric acid was added thereto. Among the TRAP-positive cells under a light microscope, multinucleated osteoclasts having 6 to 7 nuclei were regarded as mature osteoclasts.
The degree of inhibition of osteoclastogenesis was calculated according to the following equation 1. The results are summarized in Table 27 below (Experiments were carried out for 4 wells/experimental group (n=4), and the results are given in terms of mean±standard deviation)
Inhibition of osteoclastogenesis(%)=(1−numbers of osteoclasts observed in experimental group/numbers of osteoclasts observed in vehicle control group)×100(%) [Equation 1]

[2] = system: Osteoblasts (Calvarial cells); settings: ICR, mouse, 72 h, 1 μM
[3] = system: Osteoblasts (Calvarial cells); assay: Cytotoxicity test (MTT); settings: 1 μM compound, 72 hours, in comparison with vehicle control

Row | Compound | inhibition at 1 µM [1] [%] | Cell viability (%) Calvarial cell [2] [%] | Osteoclastogenesis inhibition (%) 1 μM [1] [%] | Cell viability (%) Calvarial cell [3] [%]
1 | CC(C)Nc1ccc([N+](=O)[O-])c(Nc2ccc(-c3csc(C4CCCCC4)n3)cc2)n1 [Compound 152, 2-[4-(2-cyclohexylthiazol-4-yl)phenylamino]-6-(isopropylamino)-3-nitropyridine] | 85 | 105 |  | 
2 | CC(C)c1nccn1-c1ccc([N+](=O)[O-])c(Nc2ccc(-n3ccnc3)cc2)n1 [Compound 92, 2-[4-(imidazol-1-yl)phenylamino]-6-[(2-isopropyl)imidazol-1-yl]-3-nitropyridine] | 64 | 101 |  | 
3 | O=[N+]([O-])c1ccc(NCc2cccnc2)nc1Nc1ccc(-n2ccnc2)cc1 [Compound 93, 2-[4-(imidazol-1-yl)phenylamino]-6-[(3-pyridyl)methylamino]-3-nitropyridine] | 66 | 98 |  | 
4 | O=[N+]([O-])c1ccc(NCc2ccncc2)nc1Nc1ccc(-c2csc(C3CCCCC3)n2)cc1 [Compound 163, 2-[4-(2-cyclohexylthiazol-4-yl)phenylamino]-6-[(4-pyridyl)methylamino]-3-nitropyridine] | 67 | 99 |  | 
5 | CC(C)(C)Nc1ccc([N+](=O)[O-])c(Nc2ccc(-c3csc(C4CCCCC4)n3)cc2)n1 [Compound 154, 2-[4-(2-cyclohexylthiazol-4-yl)phenylamino]-6-(t-butylamino)-3-nitropyridine] | 78 | 116 |  | 
6 | COc1ccc(Nc2nc(N3CCC(N)CC3)ccc2[N+](=O)[O-])cc1 [Compound 28, 2-(4-methoxyphenylamino)-6-(4-aminopiperidino)-3-nitropyridine] | 88 | 89 |  | 
7 | CC(C)CNc1ccc([N+](=O)[O-])c(Nc2ccc(-c3csc(C4CCCCC4)n3)cc2)n1 [Compound 153, 2-[4-(2-cyclohexylthiazol-4-yl)phenylamino]-6-(isobutylamino)-3-nitropyridine] | 78 | 107 |  | 
8 | Cc1ccc(Nc2nc(N3CCNCC3)ccc2[N+](=O)[O-])cc1 [Compound 12, 2-(4-methylphenylamino)-6-(piperazin-1-yl)-3-nitropyridine] | 63 | 103 |  | 
9 | CC(C)c1nccn1-c1ccc([N+](=O)[O-])c(Nc2ccc(N3CCCCC3)c(F)c2)n1 [Compound 228, 2-[(3-fluoro-4-piperidino)phenylamino]-6-[(2-isopropyl)imidazol-1-yl]-3-nitropyridine] |  |  | 73 | 99
10 | O=[N+]([O-])c1ccc(NCc2ccncc2)nc1Nc1ccc(N2CCC(O)CC2)c(F)c1 [Compound 242, 2-{[3-fluoro-4-(4-hydroxypiperidino)]phenylamino}-6-[(4-pyridyl)methylamino]-3-nitropyridine] |  |  | 93 | 114
11 | O=[N+]([O-])c1ccc(NCc2cccnc2)nc1Nc1ccc(N2CCOCC2)c(F)c1 [Compound 197, 2-[(3-fluoro-4-morpholino)phenylamino]-6-[(3-pyridyl)methylamino]-3-nitropyridine] |  |  | 81 | 95
12 | Cc1ccc(Nc2nc(-n3ccnc3C(C)C)ccc2[N+](=O)[O-])cc1 [Compound 7, 2-(4-methylphenylamino)-6-[(2-isopropyl)imidazol-1-yl]-3-nitropyridine] | 100 | 103 |  | 
13 | NC1CCN(c2ccc([N+](=O)[O-])c(Nc3ccc(N4CCC(O)CC4)c(F)c3)n2)CC1 [Compound 246, 2-{[3-fluoro-4-(4-hydroxypiperidino)]phenylamino}-6-(4-aminopiperidino)-3-nitropyridine] |  |  | 80 | 105
14 | CN1CCN(c2ccc([N+](=O)[O-])c(Nc3ccc(N4CCCCC4)c(F)c3)n2)CC1 [Compound 232, 2-[(3-fluoro-4-piperidino)phenylamino]-6-(4-methylpiperazin-1-yl)-3-nitropyridine] |  |  | 86 | 100
15 | CSc1ccc(Nc2nc(NCCCn3ccnc3)ccc2[N+](=O)[O-])cc1 [Compound 55, 2-[4-(methylsulfanyl)phenylamino]-6-[(3-imidazol-1-yl)propylamino]-3-nitropyridine] | 98 | 105 |  | 
16 | CCCCc1ccc(Nc2nc(NCCCn3ccnc3)ccc2[N+](=O)[O-])cc1 [Compound 56, 2-[4-(n-butyl)phenylamino]-6-[(3-imidazol-1-yl)propylamino]-3-nitropyridine] | 99 | 104 |  | 
17 | O=[N+]([O-])c1ccc(NCc2cccnc2)nc1Nc1ccc(N2CCC(O)CC2)c(F)c1 [Compound 241, 2-{[3-fluoro-4-(4-hydroxypiperidino)]phenylamino}-6-[(3-pyridyl)methylamino]-3-nitropyridine] |  |  | 87 | 100
18 | Nc1ccc(Nc2nc(N3CCOCC3)ccc2[N+](=O)[O-])cc1 [Compound 64, 2-[4-(amino)phenylamino]-6-morpholino-3-nitropyridine] | 65 | 102 |  | 
19 | O=[N+]([O-])c1ccc(NCc2ccncc2)nc1Nc1ccc(N2CCSCC2)c(F)c1 [Compound 210, 2-[(3-fluoro-4-thiomorpholino)phenylamino]-6-[(4-pyridyl)methylamino]-3-nitropyridine] |  |  | 70 | 105
20 | Cc1nc(-c2ccc(Nc3nc(N4CCC(N)CC4)ccc3[N+](=O)[O-])cc2)cs1 [Compound 144, 2-[4-(2-methylthiazol-4-yl)phenylamino]-6-(4-aminopiperidino)-3-nitropyridine] | 100 | 35 |  | 
21 | CCN(CC)c1ccc(Nc2nc(NCC(C)C)ccc2[N+](=O)[O-])cc1F [Compound 177, 2-[(3-fluoro-4-diethylamino)phenylamino]-6-(isobutylamino)-3-nitropyridine] |  |  | 61 | 107
22 | O=[N+]([O-])c1ccc(N2CCNCC2)nc1Nc1ccc(N2CCCCC2)c(F)c1 [Compound 233, 2-[(3-fluoro-4-piperidino)phenylamino]-6-(piperazin-1-yl)-3-nitropyridine] |  |  | 96 | 102
23 | Cc1nc(-c2ccc(Nc3nc(NCC(C)C)ccc3[N+](=O)[O-])cc2)cs1 [Compound 134, 2-[4-(2-methylthiazol-4-yl)phenylamino]-6-(isobutylamino)-3-nitropyridine] | 61 | 93 |  | 
24 | NC1CCN(c2ccc([N+](=O)[O-])c(Nc3ccc(N4CCCCC4)c(F)c3)n2)CC1 [Compound 234, 2-[(3-fluoro-4-piperidino)phenylamino]-6-(4-aminopiperidino)-3-nitropyridine] |  |  | 100 | 94
